Source: US5605906A, “Cannabinoid receptor agonists” (Merck Frosst Canada, Inc., priority 1995, dated 1997)
“And” between values parts separate entries of the source, which are not always exact repeats. Equal entries are not always repeated.

Experiments:
[1] = target: T1, human central cannabinoid (CB 1) receptor (Homo sapiens, UniProt P21554); assay: CB1 receptor binding assay ([3H]CP55940, HEK293(EBNA) membranes); conditions: [3H]CP55940 0.6 nM, pH 7.4, 30 °C, 60 min
T1 construct: expressed in transfected cells; host or cells: HEK293(EBNA)
Protocol: The compound of Formula I can be tested using the following assays to determine their affinity for binding to the cannabinoid receptors.
Stable cell lines were constructed expressing either the human peripheral cannabinoid (CB2) receptor or the human central cannabinoid (CB 1) receptor as described previously (Gerard. et al., Molecular cloning of a human cannabinoid receptor which is also expressed in testis. Biochem. J. (279)129-134, 1991.). […]
CB2 receptor binding assays were performed in 0.2 ml of 10 mM HEPES/KOH (pH 7.4) containing 1 mM EDTA, 0.3 mg/ml human serum albumin (HSA), 1 mM MgCl2, and 2.4 nM [^3 H]Win 55212-2 (Dupont-NEN Canada, Mississauga, ON). […] The residual [^3 H]Win 55212-2 or [^3 H]CP55940(-) bound to the filters was determined by liquid scintillation counting following a 6h equilibration in 5 ml Biofluor O) (Dupont-NEN Canada, Mississauga, ON) scintillation cocktail (efficiency for tritium was approximately 55%). […]

[2] = target: T2, human peripheral cannabinoid (CB2) receptor (Homo sapiens, UniProt P34972); assay: CB2 receptor binding assay ([3H]Win 55212-2, CHO-K1 membranes); conditions: [3H]Win 55212-2 2.4 nM, pH 7.4, 30 °C, 40 min
T2 construct: expressed in transfected cells; host or cells: CHO-K1

[3] = target: T2, human peripheral cannabinoid (CB2) receptor; assay: CB2 functional assay: cAMP assay in CHO-K1 cells expressing the CB2 receptor; type: cell-based; conditions: forskolin, 37 °C, 15 min
Protocol: Stable cell lines were constructed expressing either the human peripheral cannabinoid (CB2) receptor or the human central cannabinoid (CB 1) receptor as described previously (Gerard. et al., Molecular cloning of a human cannabinoid receptor which is also expressed in testis. Biochem. J. (279)129-134, 1991.). Membranes were prepared from CHO-K1 cells stably expressing the CB2 receptor and HEK293(EBNA) cells stably expressing the CB 1 receptor by differential centrifugation (1000×g for 10 min, then 100,000×g for 30 min, both at 4° C.) following lysis of the cells by nitrogen cavitation at 800 psi for 15 min on ice, as previously described (Frey, E.A., et al., Characterization of the leukotriene D4 receptor in dimethylsulphoxide-dufferentiated U937 cells: comparison with the leukotriene D4 receptor in human-lung and guinea-pig lung. Eur. J. Pharma. (244) 239-250, 1993.). […]
CB2--CHO-K1 cells were seeded at 10^6 cells per 175 cm^2 T-flask in MEM alpha growth medium (MEM alpha medium containing 25 mM HEPES/KOH (pH 7.4), 10% heat inactivated fetal bovine serum, 20 units/ml penicillin G, 20 mg/ml streptomycin sulfate and 500 mg/ml G418) (GIBCO-BRL Canada, Burlington, ON). […] Cell viability was always >96% as determined by trypan blue exclusion. […]

T1 sequence (P21554 whole entry): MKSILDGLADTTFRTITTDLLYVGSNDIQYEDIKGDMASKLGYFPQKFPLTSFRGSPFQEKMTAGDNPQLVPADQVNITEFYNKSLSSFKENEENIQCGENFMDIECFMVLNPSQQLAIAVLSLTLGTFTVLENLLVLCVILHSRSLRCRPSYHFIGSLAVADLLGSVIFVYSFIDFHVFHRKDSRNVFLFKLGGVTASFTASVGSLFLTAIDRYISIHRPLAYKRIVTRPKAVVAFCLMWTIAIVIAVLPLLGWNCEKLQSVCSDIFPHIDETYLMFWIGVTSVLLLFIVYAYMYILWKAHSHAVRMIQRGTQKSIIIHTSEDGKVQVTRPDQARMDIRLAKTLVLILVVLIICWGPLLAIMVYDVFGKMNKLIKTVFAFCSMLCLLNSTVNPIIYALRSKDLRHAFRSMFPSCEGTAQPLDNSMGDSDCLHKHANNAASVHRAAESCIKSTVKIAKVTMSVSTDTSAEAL
T2 sequence (P34972 whole entry): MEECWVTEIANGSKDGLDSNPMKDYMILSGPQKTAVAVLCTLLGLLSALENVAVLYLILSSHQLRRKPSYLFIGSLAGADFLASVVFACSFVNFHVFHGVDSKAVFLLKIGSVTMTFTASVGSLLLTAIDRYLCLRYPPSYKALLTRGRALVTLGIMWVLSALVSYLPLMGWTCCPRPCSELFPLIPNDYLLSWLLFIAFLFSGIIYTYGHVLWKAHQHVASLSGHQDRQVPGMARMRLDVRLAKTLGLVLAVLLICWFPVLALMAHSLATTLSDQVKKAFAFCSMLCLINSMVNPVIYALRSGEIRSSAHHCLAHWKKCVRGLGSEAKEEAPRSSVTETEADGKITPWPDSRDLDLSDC

SMILES | IC50 [1] | Ki [2] | EC50 [3]
CCCCCCC(C)(C)c1cc(O)c2c(c1)OC(C)(C)[C@@H]1CC=C(CO)C[C@@H]21 [HU-210, reference compound] | 0.0025 ± 0.0002 µM |  | 
COc1ccc2c(c1)N(C)C(C)(C)[C@@H]1CC[C@@H](C)C[C@@H]21 [Example 1, (6aR,9R,10aR)-3-Methoxy-5,6,6,9-tetramethyl-5,6,6a,7,8,9,10,10a-octahydro-phenanthridine] | 22.3 µM and 27.4 µM | 0.073 µM and 0.055 µM | 0.068 µM and 0.149 µM
